Test results as given in PMC11239005, “Preclinical studies of RA475, a guanidine-substituted spirocyclic candidate RPN13/ADRM1 inhibitor for treatment of ovarian cancer” (PLOS ONE, 2024).

Tested on: spontaneous genetically-engineered peritoneal tumor (shp53, AKT, c-Myc)
Test: Spontaneous GEMM of primary peritoneal/ovarian cancer
Format: in vivo, mouse
Settings: C57BL/6
Experimental: To induce IP tumor formation in immunocompetent mice, oncogenes (shp53, AKT, c-Myc), luciferase and the Sleeping Beauty (SB) transposase (10 μg/plasmid) were diluted in 500 μL of PBS and injected IP into female C57BL/6 mice. The mice were anesthetized by intramuscular injection of 50–100μL of a cocktail of ketamine 16 mg/mL / 3 mg/mL xylazine. The plasmid-injected mice were electroporated (EP) by the BTX ECM 830 square wave EP generator (BTX) (5 pulses, 200 V for 100 ms/pulse, 100 ms intervals between each pulse) with the caliper electrode (BTX) held across the waist of mouse. The mice were followed by IVIS imaging weekly for tracking tumor growth. The mice were sacrificed when the bioluminescence signal reached 10^9 photons/sec/cm^2/sr, or had enlarged abdomens due to the production of ascites, or had health conditions and/or criteria under which early euthanasia was required by the protocol. To track peritoneal tumor growth, bioluminescence imaging was performed by the IVIS Spectrum2000 (PerkinElmer) as the plasmid expressing SB transposase also produces luciferase. Briefly, the mice were injected IP with D-luciferin (GoldBio). After 10 min, the mice were anesthetized with isoflurane, and imaged by the IVIS Spectrum under the auto exposure mode. Bioluminescence in the peritoneal region was quantified as total photon counts/sec/cm^2/sr using Living Image 3.0 Software (Perkin Elmer).
GEMM better mimic the spontaneous development of cancers in an immune competent host than transplantable tumor lines. Female C57BL/6 mice were co-injected IP with sleeping beauty vector and plasmids expressing carrying shp53, AKT, c-Myc and firefly luciferase genes, followed by electroporation (EP) to deliver these plasmid DNA into the peritoneal cavity cells wherein they integrate randomly into their genome. After 7 days mice were imaged by IVIS200 for bioluminescence and randomized. Four groups (n = 8) were treated IP with vehicle or RA475 (40mg/kg, IP, every 3 days) or Cisplatin (5 mg/Kg, once a week) or the combination of RA475 (40mg/Kg, IP, every 3 days) plus Cisplatin (5 mg/Kg, once a week). […] While cisplatin reduced tumor growth, it led to severe toxicity including weight loss >20% that was not evident with RA475 alone.
Fig 7 Administration of RA475, cisplatin or the combination to mice bearing spontaneous, genetically-engineered model ovarian/peritoneal cancer. Female C57BL/6 mice were co-injected IP with sleeping beauty vector and plasmids expressing carrying shp53, AKT, c-Myc and firefly luciferase genes, followed by electroporation (EP) to deliver these plasmid DNA into the peritoneal cavity cells wherein they integrate randomly into their genome. After 7 days mice were imaged by Xenogen IVIS200 for bioluminescence and randomized. […]

[1] = RA475 40 mg/kg IP every 3 days (12 doses), cisplatin 5 mg/Kg weekly (5 doses alone, 3 in combination)

SMILES: Cl.Cl.N#Cc1ccc(/C=C2/C(=O)/C(=C/c3ccc(C#N)cc3)C23CCN(C(=N)N)CC3)cc1 [RA475, 1,3-bis((E)-4-cyanobenzylidene)-2-oxo-7-azaspiro[3.5]nonane-7-carboximidamide dihydrochloride]
- survival [1]: extended survival to a similar extent as cisplatin alone
- tumor burden by bioluminescence [1]: delayed but did not significantly reduce tumor burden
- weight loss (RA475 40 mg/kg IP every 3 days, cisplatin 5 mg/Kg weekly): not evident
